Experimental data taken from publication PMC6455008, “Methylation at the C-3′ in D-Ring of Strigolactone Analogs Reduces Biological Activity in Root Parasitic Plants and Rice” (Frontiers in Plant Science, 2019).

Tests used:
Arabidopsis seedlings = experiment: Arabidopsis lateral root density assay; format: in vivo; conditions: compared to control seedlings; for inhibition of lateral root density: 1.0 μM
Description: The sterilized Arabidopsis seeds were grown in petri plates that were first kept at 4°C in darkness for 3 days. For hypocotyl study, the petri plates were exposed to continuous white light for 24 h, then transferred to continuous monochromatic red light (20 μmol m^−2 s^−1, 22°C) conditions for another 4 days. For lateral root density, the plates were vertically grown at 22°C in Percival incubator under long day conditions (16 h at 22°C/8 h at 16°C day/night, 60% relative humidity, 60–70 μmol m^−2 s^−1 white light) for 8 days. After scanning, the hypocotyl length and number of lateral roots were recorded using publicly available ImageJ software.^1

Striga seeds = experiment: Stability of formulated SL analogs in sand (Striga germination readout); format: physicochemical, Striga hermonthica; conditions: 1.0 μM; for Striga seed germinating activity before incubation in sand: no incubation
Description: The stability of formulated SL analogs was further tested in sand culture. About 1.5 ml of silver sand was added in each of 6 wells of 24-well plates. Then, 800 μl of formulated SL analogs (1.0 μM) was added in each of the six wells. The plates were sealed firmly with para-film, wrapped in aluminum foil, and placed at 30°C from day 1 to day 7. After 7 days, glass fiber discs containing preconditioned Striga seeds were placed on the top of each of the six wells and incubated in the dark at 30°C for 24 h. The germinated and non-germinated seeds were counted from each disc. In addition, the viability of formulated SL analogs was also tested in aqueous solution for 7 weeks at 30°C. About 800-μl aqueous solution of formulated SL analogs (1.0 μM) was added in a black Eppendorf tube weekly up to 6 weeks and incubated at 30°C. On the seventh week, about 50 μl of each analog was applied on a glass fiber disc containing preconditioned Striga seed and put again in the dark in sealed petri plates at 30°C for 24 h. Germinated and non-germinated seeds were counted from each disc.

ShHTL7 = target: T1, ShHTL7 (Striga hermonthica, UniProt A0A0M3PNA2); experiment: In vitro YLG hydrolysis competition assay, ShHTL7; format: biochemical; conditions: 3.0 μM protein, 1.0 μM YLG, 60 min, room temperature; read-out: IC50, competitive inhibition of ShHTL7-mediated YLG hydrolysis
T1 sequence (A0A0M3PNA2 1-271): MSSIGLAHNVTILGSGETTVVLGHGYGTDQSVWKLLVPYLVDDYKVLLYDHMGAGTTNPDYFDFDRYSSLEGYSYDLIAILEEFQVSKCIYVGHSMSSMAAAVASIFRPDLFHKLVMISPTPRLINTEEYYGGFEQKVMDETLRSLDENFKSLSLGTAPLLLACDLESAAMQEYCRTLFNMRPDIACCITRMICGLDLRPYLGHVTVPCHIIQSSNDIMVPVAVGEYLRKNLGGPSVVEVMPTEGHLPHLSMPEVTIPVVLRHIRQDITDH
Description: (§1) Protein expression and purification of ShHTL7 and Oryza sativa D14 (OsD14) was carried out according to the procedure described earlier ([Jamil et al., 2018]). In vitro Yoshimulactone Green (YLG) hydrolysis assays ([Tsuchiya et al., 2015]) were carried out using 3.0 μM of protein ShHTL7 and OsD14 in a reaction buffer (1X PBS buffer, pH 7.3) with 0.1% DMSO at a 100-μl volume on a 96-well black plate (Greiner). For competitive assays, rac-GR24, AR8, MP13, and MP26 (at range between 0.01 and 50 μM) were co-incubated with 1.0 μM of YLG (Tokyo Chemical Industry Co. Ltd., product number E1238) for 60 min at room temperature. Fluorescent intensity was measured by spectraMax i5 (Molecular Devices) at excitation by 480 nm and detection by 520 nm. The change in fluorescence observed over the course of 1 h of YLG in buffer without protein was subtracted from the data collected in presence of protein. IC50 values were calculated by GraphPad (Prism 7).

OsD14 = target: T2, OsD14 (Oryza sativa subsp. japonica, UniProt Q10QA5); experiment: In vitro YLG hydrolysis competition assay, OsD14; format: biochemical
T2 construct: made in house
T2 sequence (Q10QA5 1-318): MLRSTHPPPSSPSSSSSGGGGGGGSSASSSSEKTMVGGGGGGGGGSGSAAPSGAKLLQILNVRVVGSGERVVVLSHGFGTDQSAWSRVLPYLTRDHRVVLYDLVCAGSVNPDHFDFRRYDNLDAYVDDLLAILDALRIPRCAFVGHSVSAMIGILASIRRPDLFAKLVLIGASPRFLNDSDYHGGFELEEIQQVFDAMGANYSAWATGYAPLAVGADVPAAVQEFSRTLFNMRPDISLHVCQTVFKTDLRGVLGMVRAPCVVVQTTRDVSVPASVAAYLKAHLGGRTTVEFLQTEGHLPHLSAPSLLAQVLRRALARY
Description: as §1

Striga = Striga emergence after formulated MP13 in naturally infested farmer's field (pearl millet host); format: in vivo
Description: A naturally Striga-infested farmer’s field was selected near Kouaré research station ([…], 0°30′W) (Fada N’Gourma, Burkina Faso) to test suicidal activity of formulated MP13, taking formulated water treatment as control treatment. After onset of few rains, the field was thoroughly prepared by subsequent ploughing and planking. The experiment was laid out in a randomized complete block design with four plots or replications. Each plot consisted of two 3-m-long mounds and spaced with one mound between rows. Formulated MP13 and normal water (control) were applied twice in each plot (25 ml m^−2) following rains (~10 mm) to get a final concentration of 0.5 μM. Local pearl millet crop was sown at least 1 week after the second application. Data on the number of emerged Striga plants at three counting dates were collected in both fields on a plot basis. The three Striga counts were then used to calculate the average number of emerged Striga plants throughout the season.

SMILES | inhibition of lateral root density (Arabidopsis seedlings) | Striga seed germinating activity after 1 day in sand (Striga seeds; sand, 30°C) | IC50 (ShHTL7) [µM] | IC50 (OsD14) [µM] | Striga seed germinating activity before incubation in sand (Striga seeds) | Striga seed germinating activity after 2 days in sand (Striga seeds; sand, 30°C, 2 days) | Striga emergence (No. per plot), change vs control (Striga; formulated MP13, 0.5 μM, printed in Figure 8E) [%] | Striga plants counted at the end of the season (Striga; formulated MP13 applied twice, final conc. 0.5 μM, pearl millet, mock field 154) [plants m^−2] | inhibition at 1 µM (Arabidopsis seedlings; Arabidopsis thaliana) [%] | Striga seed germinating activity after day 3 in sand (Striga seeds; sand, 30°C, after day 3)
CC1=C(C)C(O/C=C(\C)C=O)OC1=O (stereo not drawn) [AR8, reference compound] | did not lead to a significant effect | completely lost its ability to induce Striga germination | 6.9 ± 0.97 | 4.87 ± 0.78 | – | – | – | – | – | –
CC1=CC(O/C=C(\C)C=O)OC1=O (stereo not drawn) [MP13, (E)-2-methyl-3-[(4-methyl-5-oxo-2,5-dihydrofuran-2-yl)oxy]acrylaldehyde] | did not lead to a significant effect | 10% | 3.87 ± 0.9 | 3.45 ± 1.2 | around 60% | complete loss of the activity | -41 | 91 | – | –
COC(=O)/C=C/C(C)=C/OC1C=C(C)C(=O)O1 (stereo not drawn) [MP26, (2E,4E)-methyl 4-methyl-5-(4-methyl-5-oxo-2,5-dihydrofuran-2-yloxy)penta-2,4-dienoate] | – | 27% | 5.3 ± 0.71 | 2.07 ± 0.8 | around 60% | – | – | – | 43 | not detectable
